Where “and” joins values, the source holds several entries; their conditions need not be identical. Identical values can stand only once. Like-named read-outs stand apart in the source and are kept apart here.
Experiments:
primary human VSMCs = assay: VSMC viability (MTS) in CPP2-supplemented medium; assay type: cell-based
Method: (§1) Macrophage accumulation and inflammation coincide with the initial phase of calcification. To this end, VSMCs and THP-1-derived macrophages were exposed to CPP2-supplemented medium. CPP2 prepared from human serum as described previously[61] (Supplementary Figs. 6 and 7), induced a pronounced VSMC monolayer calcification after 48 h, which was decreased by (OEG2)2-IP4 in a dose-dependent fashion, and the effect became significant at 10 µM (Fig. 3e). […] Both H2O2 (proxy for oxidative stress) and tumor necrosis factor-alpha (TNF-α) (proxy for inflammatory response) levels were assayed in the VSMC culture supernatants subsequent to CPP2 treatment with and without compounds[30]. However, no increase in H2O2 nor TNF-α compared to control could be detected in either assay. For the CPP-induced VSMC calcification assay (Fig. 3e) a roughly 10-fold higher concentration of (OEG2)2-IP4 was necessary to achieve similar activity as in the CaP-induced VSMC calcification assay (Fig. 3b). […] In the CaP assay, low inhibitor concentration may be sufficient to inhibit crystal nucleation, whereas for the CPP assay higher inhibitor concentrations may be needed to achieve sufficient particle stabilization by chemisorption of inhibitor onto CPPs. Similar results have been reported for hydrogen sulfide in the context of VC[62],[64]. […] An increase in the TNFα levels in the cell culture supernatants was not observed for (OEG2)2-IP4 with (Fig. 3h) and without (Supplementary Fig. 10) combined CPP2 treatment.
(§2) Cell viability was assessed using the MTS assay (CellTiter 96® Aqueous One Solution Cell Proliferation Assay, G3580; Promega, Madison, WI, USA) according to the manufacturer’s instructions. Assays using combined treatment of CPPs or CaP and test compounds were performed in 24-well plates using 20,000 cells per well and assays using test compounds only were performed in a 96-well plate format with a seeding density of 10,000 (VSMC) or 50,000 (THP-1) cells per well, respectively. For controls, cells were treated with respective complete medium only and results were calculated as % of control.

[1] = VSMC viability (MTS) in CPP2-supplemented medium; assay type: cell-based, human; settings: human, read-out: VSMC viability (MTS), % of medium control; for viability at 48 h, 3 µM: 3 µM with CPP2; for viability at 48 h, 10 µM: 10 µM with CPP2; for viability at 48 h, 30 µM: 30 µM with CPP2
Method: as §1, §2

[2] = Inhibition of calcium phosphate precipitation in serum-free buffer; assay type: physicochemical; settings: for inhibition of calcium phosphate precipitation, serum-free: 10 mM calcium, 6 mM phosphate, HBS pH 7.4, 90 min, 37 °C
Text: calcification in organs other than these are available from the present study.
We have included the latest research on CPPs and the respective literature now in the introduction (p. 4, line 74 ff.).
The way I see it the compound stabilizes CPP1, which can be more easily cleared unless it occurs in very high amounts and cannot be cleared at all. Therefore it is important to measure renal mineral clearance ± compound (see comment for Fig 3)
We have amended the discussion in the revised manuscript with respect to the hypothesis on the mechanism of action of (OEG2)2-IP4 postulated by the reviewer. (p. 32, line 614 ff.). We have further addressed the mechanism of action in response to Reviewer #4 Comment 3.
Did they test if (OEG2)2-IP4 compound alone stabilized supersaturated Ca and Pi solutions by forming colloids akin to CPP? […]
and phosphate and formation of hydroxyapatite with the assay from Heiss, A. et al.5. In brief, compound, 10 mM calcium solution and 6 mM phosphate solution in Hepes buffered saline (pH 7.4, RT) were incubated for 90 min at 37 °C and centrifuged at 8 000 x g for 5 min. The recovered pellet was dissolved in 1% (v/v) acetic acid and the calcium content quantified […]. (OEG2)2-IP4 alone stabilized supersaturated calcium and phosphate in […]
CPP1s (Rh < 100 nm) were detected by dynamic light scattering. […]
synergistic effect of (OEG2)2-IP4 with endogenous calcification inhibitors, such as fetuin-A in […]
that are not physiological (no serum), we prefer not to include these additional data in the […]

[3] = tested on: THP-1-derived macrophages; assay: Macrophage viability (MTS) with CPP2 and compounds; assay type: cell-based, human
Method: as §1
(§3) THP-1 cells were plated at a density of 200,000 cells/well in a 24-well plate, differentiated as stated above, and subsequently treated with or without CPP2 (50 μg Ca/mL) in complete medium with or without test compounds (3, 10, 30, 100 μM) for 24 h at 37 °C, 5% CO2.
as §2

[4] = Macrophage viability (MTS) with CPP2 and compounds; assay type: cell-based, human; settings: human, THP-1-derived macrophages, read-out: Macrophage viability (MTS), % of medium control; for viability at 24 h, 3 µM: 3 µM + CPP2, replicates Fig. 3i; for viability at 24 h, 10 µM: 10 µM + CPP2; for viability at 24 h, 30 µM: 30 µM + CPP2; for viability at 24 h, 100 µM: 100 µM + CPP2
Method: as §1, §3, §2

CPPs = assay: DLS of CPP hydrodynamic diameter in human serum; set-up: Dh: unit not given here
Method: To confirm the screening assay data, the hydrodynamic diameter of the CPPs was measured by dynamic light scattering (DLS).
Human serum studies were performed under sterile conditions at 37 °C as described previously. […] For serum background measurements, saline, human serum, and 100 mM HBS (pH 7.4 (RT)) were combined in a volume ratio of 2:8:10. […] The mixtures were incubated with continual slow mixing on a rotator (240 rotations/min, IKA KS 130 Basics Orbital Shaker) at 37 °C. After 1, 3, and 5 h of incubation, 500 µL aliquots were drawn under sterile conditions to prevent microorganism growth contamination and subjected to DLS analysis at 37 °C. For each experiment, three replicates were produced and a single measurement per sample and time point was performed.

[5] = 1 µM with CPP2, replicates Fig. 3f
[6] = 3 µM + CPP2, replicates Fig. 3i, 3 µM
[7] = Supl.Fig.4 panel b, time 1 (unit not given)

Compound: COCCOCCO[C@@H]1[C@@H](OP(=O)(O)O)[C@H](OCCOCCOC)[C@@H](OP(=O)(O)O)[C@@H](OP(=O)(O)O)[C@H]1OP(=O)(O)O [(OEG2)2-IP4, 4,6-Di-O-(methoxy-diethyleneglycol)-myo-inositol-1,2,3,5-tetrakis(phosphate)]
- VSMC viability in CPP2 setup (primary human VSMCs): did not reduce VSMC viability
- VSMC viability (MTS), % of medium control (primary human VSMCs; [5]): 111.835% and 81.6116% and 105.448%
- VSMC viability (MTS), % of medium control (primary human VSMCs; 3 µM with CPP2): 87.2434% and 103.748%
- VSMC viability (MTS), % of medium control (primary human VSMCs; 10 µM with CPP2): 94.1761% and 106.452%
- VSMC viability (MTS), % of medium control (primary human VSMCs; 30 µM with CPP2): 95.6307% and 101.925%
- VSMC viability (MTS), % of medium control (primary human VSMCs; 100 µM with CPP2): 103.228% and 101.178%
- viability at 48 h, 3 µM [1]: 102%
- viability at 48 h, 10 µM [1]: 104%
- viability at 48 h, 30 µM [1]: 101%
- viability at 48 h, 100 µM ([1]; 100 µM with CPP2): 93.7%
- precipitate formation, serum-free ([2]; 1 mM): no precipitate formed
- inhibition of calcium phosphate precipitation, serum-free [2]: stabilized supersaturated calcium and phosphate in solution dose dependently
- Macrophage viability (MTS), % of medium control [3, 6]: 98.1% and 100.05%
- Macrophage viability (MTS), % of medium control ([3]; 10 µM + CPP2, 10 µM): 99.92% and 100.59%
- Macrophage viability (MTS), % of medium control ([3]; 30 µM + CPP2, 30 µM): 96.73% and 98.39%
- Macrophage viability (MTS), % of medium control ([3]; 100 µM + CPP2, 100 µM): 94.54% and 99.09%
- viability at 24 h, 3 µM [4]: 100%
- viability at 24 h, 10 µM [4]: 97.5%
- viability at 24 h, 30 µM [4]: 96.5%
- viability at 24 h, 100 µM [4]: 99.1%
- CPP particle growth (DLS) (CPPs; added to CPP1s at a final concentration of 30 µM): stabilized particle growth

Compound: O=P(O)(O)O[C@H]1[C@H](OP(=O)(O)O)[C@@H](OP(=O)(O)O)[C@H](OP(=O)(O)O)[C@@H](OP(=O)(O)O)[C@H]1OP(=O)(O)O [IP6, myo-Inositol hexakisphosphate]
- VSMC viability (MTS), % of medium control (primary human VSMCs; [5]): 94.0938% and 110.013%
- VSMC viability (MTS), % of medium control (primary human VSMCs; 3 µM with CPP2): 97.0633% and 115.505%
- VSMC viability (MTS), % of medium control (primary human VSMCs; 10 µM with CPP2): 97.8153% and 108.364%
- VSMC viability (MTS), % of medium control (primary human VSMCs; 30 µM with CPP2): 106.197% and 112.672%
- VSMC viability (MTS), % of medium control (primary human VSMCs; 100 µM with CPP2): 103.122% and 102.613% and 123.477%
- viability at 48 h, 1 µM ([1]; primary human VSMCs, 1 µM with CPP2, replicates Fig. 3f): 100%
- viability at 48 h, 3 µM ([1]; primary human VSMCs): 106%
- viability at 48 h, 10 µM ([1]; primary human VSMCs): 109%
- viability at 48 h, 30 µM ([1]; primary human VSMCs): 94.2%
- inhibition of calcium phosphate precipitation, serum-free [2]: barely effective
- Macrophage viability (MTS), % of medium control [3, 6]: 102.11% and 100.63%
- Macrophage viability (MTS), % of medium control ([3]; 10 µM + CPP2, 10 µM): 99.19%
- Macrophage viability (MTS), % of medium control ([3]; 30 µM + CPP2, 30 µM): 96.22% and 102.8%
- reduction of macrophage viability ([3]; 100 µM + CPP2): 24%
- Macrophage viability (MTS), % of medium control ([3]; 100 µM + CPP2, 100 µM): 79.04% and 78.68%
- viability at 24 h, 3 µM [4]: 100%
- viability at 24 h, 10 µM [4]: 98%
- viability at 24 h, 30 µM [4]: 95.5%
- viability at 24 h, 100 µM [4]: 69.2%
- Dh (CPPs; [7]): 88.6 and 105.8 and 120.4
- PDI (CPPs; [7]): 0.387 and 0.354 and 0.351
- Dh (CPPs; Supl.Fig.4 panel b, time 3): 117.9 and 117.1 and 132.1
- PDI (CPPs; Supl.Fig.4 panel b, time 3): 0.358 and 0.359
- Dh (CPPs; Supl.Fig.4 panel b, time 5): 120.1 and 126.7 and 139.4
- PDI (CPPs; Supl.Fig.4 panel b, time 5): 0.352 and 0.371 and 0.353
- Dh (CPPs; Supl.Fig.4 panel d, time 1): 134.2 and 137.5 and 124.1
- PDI (CPPs; Supl.Fig.4 panel d, time 1): 0.243 and 0.215 and 0.244
- PDI (CPPs; Supl.Fig.4 panel d, time 3): 0.263 and 0.405 and 0.247
- Dh (CPPs; Supl.Fig.4 panel d, time 5): 829.4 and 949 and 968.9
- PDI (CPPs; Supl.Fig.4 panel d, time 5): 0.375 and 0.401 and 0.371
- Dh (CPPs; Supl.Fig.4 panel e, time 1): 121.9 and 131.6 and 127.5
- PDI (CPPs; Supl.Fig.4 panel e, time 1): 0.239 and 0.253 and 0.225
- Dh (CPPs; Supl.Fig.4 panel e, time 3): 917.4 and 1163.2 and 967.1
- PDI (CPPs; Supl.Fig.4 panel e, time 3): 0.279 and 0.365 and 0.211
- Dh (CPPs; Supl.Fig.4 panel e, time 5): 1239.9 and 912.5 and 1030.4
- PDI (CPPs; Supl.Fig.4 panel e, time 5): 0.335 and 0.413 and 0.307
- Dh (CPPs; Supl.Fig.4 panel f, time 1): 151.1 and 134.7 and 128.6
- PDI (CPPs; Supl.Fig.4 panel f, time 1): 0.231 and 0.246 and 0.242
- Dh (CPPs; Supl.Fig.4 panel f, time 3): 1215.5 and 1246.8 and 894.9
- Dh (CPPs; Supl.Fig.4 panel f, time 5): 938.5 and 1174.7 and 1102.1
- PDI (CPPs; Supl.Fig.4 panel f, time 5): 0.341 and 0.349 and 0.237
- Dh (CPPs; Supl.Fig.4 panel g, time 1): 161.6 and 144.6 and 111.2
- PDI (CPPs; Supl.Fig.4 panel g, time 1): 0.205 and 0.233 and 0.237
- PDI (CPPs; Supl.Fig.4 panel g, time 3): 0.21 and 0.2 and 0.256
- PDI (CPPs; Supl.Fig.4 panel g, time 5): 0.256 and 0.391 and 0.263
- Dh (CPPs; Supl.Fig.4 panel h, time 1): 140.9 and 155.6 and 124.7
- PDI (CPPs; Supl.Fig.4 panel h, time 1): 0.242 and 0.211 and 0.261
- PDI (CPPs; Supl.Fig.4 panel h, time 3): 0.224 and 0.271 and 0.403
- Dh (CPPs; Supl.Fig.4 panel h, time 5): 698.6 and 1132.6 and 867.3
- PDI (CPPs; Supl.Fig.4 panel h, time 5): 0.295 and 0.332 and 0.35
- Dh (CPPs; Supl.Fig.4 panel i, time 1): 144.5 and 156.7 and 136.9
- PDI (CPPs; Supl.Fig.4 panel i, time 1): 0.23 and 0.222 and 0.25
- Dh (CPPs; Supl.Fig.4 panel i, time 3): 161.1 and 174.2 and 140.3
- PDI (CPPs; Supl.Fig.4 panel i, time 3): 0.256 and 0.273 and 0.247
- Dh (CPPs; Supl.Fig.4 panel i, time 5): 832.1 and 1065.7 and 818.8
- PDI (CPPs; Supl.Fig.4 panel i, time 5): 0.38 and 0.379 and 0.375
